For experiment [1], the system named is Staphylococcus aureus UC ® 9213. Nature of the experiment: in vitro antibacterial activity, Minimum Inhibitory Concentration, Staphylococcus aureus. The settings on record: for MIC: Staphylococcus aureus, UC9213, read-out: Minimum Inhibitory Concentration; for Minimum Inhibitory Concentration: in vitro, Staphylococcus aureus UC ® 9213.
In experiment [2] the test system is Streptococcus pyogenes UC ® 152. Put plainly: in vitro antibacterial activity, Minimum Inhibitory Concentration, Streptococcus pyogenes. Conditions: for MIC: Streptococcus pyogenes, UC152, read-out: Minimum Inhibitory Concentration; for Minimum Inhibitory Concentration: in vitro, Streptococcus pyogenes UC ® 152.

Converted amounts (≈) assume the structure as drawn.

For the compound `CC(=O)NCC1CN(c2ccc(-c3ccc(N4CCNCC4)c(=O)cc3)cc2)C(=O)O1` (racemic) [Compound 12, (±)-N-[[3-[4-[4-(1-piperazinyl)-5-oxo-1,3,6-cycloheptatrien-1-yl]phenyl]-2-oxo-5-oxazolidinyl]methyl]-acetamide], the MIC amounted to 8 µg/mL (≈ 18.9 µM) in experiment [1] and 0.25 µg/mL (≈ 0.592 µM) in experiment [2].
In the case of `CC(=O)NCC1CN(c2ccc(-c3ccc(NC4CCCC4)c(=O)cc3)cc2)C(=O)O1` (racemic) [Compound 11, (±)-N-[[3-[4-(4-cyclopentylamino-5-oxo-1,3,6-cycloheptatrien-1-yl)phenyl]-2-oxo-5-oxazolidinyl]methyl]-acetamide], the results for the MIC in experiment [1] and in experiment [2] were 4 µg/mL (≈ 9.49 µM) and 1 µg/mL (≈ 2.37 µM), respectively.
Turning to `COC(=O)CNc1ccc(-c2ccc(N3CC(CNC(C)=O)OC3=O)cc2)ccc1=O` (racemic) [Compound 30, (±)-N-[[3-[4-[-[[(methoxycarbonyl)methyl]amino]-5-oxo-1,3,6cycloheptatrien-1-yl]phenyl]-2-oxo-5-oxazolidinyl]methyl]-acetamide], the results for the “Minimum Inhibitory Concentration” value in experiment [1] and in experiment [2] were 4 µg/mL and 1 µg/mL, respectively.
In the case of `CC(=O)NCC1CN(c2ccc(-c3ccc(NC4CC4)c(=O)cc3)cc2)C(=O)O1` (racemic) [Compound 6, (±)-N-[[3-[4-(4-cyclopropylamino-5-oxo-1,3,6-cycloheptatrien-1-yl)phenyl]-2-oxo-5-oxazolidinyl]methyl]-acetamide], the MIC turned out to be 2 µg/mL (≈ 5.08 µM) in experiment [1] and 0.5 µg/mL (≈ 1.27 µM) in experiment [2].
Turning to `CC(=O)NCC1CN(c2ccc(-c3ccc(N4CCC(O)C4)c(=O)cc3)cc2)C(=O)O1` (racemic) [Compound 18, (±)-N-[[3-[4-[4-(3-hydroxy-1-pyrrolidinyl)-5-oxo-1,3,6-cycloheptatrien-1-yl]phenyl]-2-oxo-5oxazolidinyl]methyl]-acetamide], the values for the MIC in experiment [1] and in experiment [2] were 4 µg/mL (≈ 9.45 µM) and 1 µg/mL (≈ 2.36 µM), respectively.
Taken in the same sequence, the figures for `CC(=O)NCC1CN(c2ccc(-c3ccc(N4CCN(C=O)CC4)c(=O)cc3)cc2)C(=O)O1` (racemic) [Compound 7, (±)-N-[[3-[4-[4-(4-formyl-1-piperazinyl)-5-oxo-1,3,6-cycloheptatrien-1-yl]phenyl]-2-oxo-5-oxazolidinyl]methyl]-acetamide] were 4 µg/mL (≈ 8.88 µM) and 0.5 µg/mL (≈ 1.11 µM).
For `CC(=O)NCC1CN(c2ccc(-c3ccc(N4CC=CC4)c(=O)cc3)cc2)C(=O)O1` (racemic) [Compound 32, (±)-N-[[3-[4-[4-(2,5dihydro-1H--pyrrol-1-yl)-5-oxo-1,3,6-cycloheptatrien-1-yl]phenyl]-2-oxo-5-oxazolidinyl]methyl]-acetamide] the same measures were 32 µg/mL (≈ 78.9 µM) and 4 µg/mL (≈ 9.87 µM).
Taken in the same sequence, the figures for `COc1ccc(-c2ccc(N3CC(CNC(C)=O)OC3=O)cc2F)ccc1=O` (racemic) [Compound 16, (±)-N-[[3-[3-fluoro-4-(4-methoxy-5-oxo-1,3,6-cycloheptatrien-1-yl)phenyl]-2-oxo-5-oxazolidinyl]methyl]-acetamide] were 1 µg/mL (≈ 2.59 µM) and 0.25 µg/mL (≈ 0.647 µM).
Take `COc1ccc(-c2ccc(N3C[C@H](CNC(C)=O)OC3=O)cc2F)ccc1=O` [Compound 19]: the MIC in experiment [1] came to 1 µg/mL (≈ 2.59 µM); in experiment [2] it was 0.25 µg/mL (≈ 0.647 µM).
As to `C=CCNc1cccc(-c2ccc(N3CC(CNC(C)=O)OC3=O)cc2)cc1=O` (racemic) [Compound 26, (±)-N[[3-[4-[4-(2-propenylamino)-3-oxo1,4,6-cycloheptatrien-1-yl]phenyl-2oxo-5-oxazolidinyl]methyl]-acetamide], the MIC is 2 µg/mL (≈ 5.08 µM) in experiment [1] and 1 µg/mL (≈ 2.54 µM) in experiment [2].
Taken in the same sequence, the figures for `CC(=O)NCC1CN(c2ccc(-c3ccc(N4CCCCC4)c(=O)cc3)cc2)C(=O)O1` (racemic) [Compound 15, (±)-N-[[3-[4-[4-(1-piperidinyl)-5-oxo-1,3,6-cycloheptatrien-1-yl]phenyl]-2-oxo-5-oxazolidinyl]methyl]-acetamide] were 2 µg/mL (≈ 4.74 µM) and 1 µg/mL (≈ 2.37 µM).
Regarding `COc1cccc(-c2ccc(N3CC(CNC(C)=O)OC3=O)cc2)cc1=O` (racemic) [Compound 20, (±)-N-[[3-[4-[4-methoxy-3-oxo-1,4,6-cycloheptatrien-1-yl)phenyl]-2-oxo-5-oxazolidinyl]methyl]-acetamide], the MIC was found to be 4 µg/mL (≈ 10.9 µM) in experiment [1] and 0.5 µg/mL (≈ 1.36 µM) in experiment [2].
As to `CC(=O)NCC1CN(c2ccc(-c3ccc(N4CCN(C)CC4)c(=O)cc3)cc2)C(=O)O1` (racemic) [Compound 10, (±)-N-[[3-[4-[4-(4-methyl-1-piperazinyl)-5-oxo-1,3,6-cycloheptatrien-1-yl]phenyl]-2-oxo-5-oxazolidinyl]methyl]-acetamide], the MIC stood at 2 µg/mL (≈ 4.58 µM) in experiment [1] and 0.12 µg/mL (≈ 0.275 µM) in experiment [2].
Turning to “(±)-N-[[3-[4-[4-(3-amino-1-yl]phenyl]-2-oxo-5-oxazolidinyl]methyl]-acetamide [Compound 23]”, the figures for the “Minimum Inhibitory Concentration” value in experiment [1] and in experiment [2] were 16 µg/mL and 0.25 µg/mL, respectively.
With `C#CCNc1cccc(-c2ccc(N3CC(CNC(C)=O)OC3=O)cc2)cc1=O` (racemic) [Compound 29, (±)-N-[[3-[4-[4-(2-pyopynylamino)-3-oxo-1,4,6-cycloheptatrien-1-yl)phenyl]2-oxo-5-oxazolidinyl]methyl-acetamide], the MIC in experiment [1] was 2 µg/mL (≈ 5.11 µM); in experiment [2], 0.5 µg/mL (≈ 1.28 µM).
In the case of `COc1ccc(-c2ccc(N3C[C@H](CNC(C)=O)OC3=O)cc2)ccc1=O` [Compound 28, (S)-N-[[3-[4-methoxy-5-oxo-1,3,6-cycloheptatrien-yl)phenyl-2-oxo-5-oxazolidinyl)methyl]-acetamide], in experiment [1], the MIC came to 1 µg/mL (≈ 2.71 µM).
For `CNc1ccc(-c2ccc(N3CC(CNC(C)=O)OC3=O)cc2)ccc1=O` (racemic) [Compound 31, (±)-N-[[3-[4-(4-methylamino--5-oxo1,3,6-cyclopheptatrien1-yl)phenyl]2-oxo-5-oxazolidinyl]methyl]-acetamide], the MIC in experiment [1] is 2 µg/mL (≈ 5.44 µM); in experiment [2], 0.25 µg/mL (≈ 0.68 µM).
For `CC(=O)NCC1CN(c2ccc(-c3ccc(N4C[C@@H](C)N[C@@H](C)C4)c(=O)cc3)cc2)C(=O)O1` (mixture of isomers) [Compound 14, (±)-N-[[3-[4-[4-(cis-3,5-dimethyl-1-piperazinyl)-5-oxo-1,3,6-cycloheptatrien-1-yl]phenyl]-2-oxo5-oxazolidinyl]methyl]-acetamide] the same measures were 8 µg/mL (≈ 17.8 µM) and 0.5 µg/mL (≈ 1.11 µM).
Taken in the same sequence, the figures for `CC(=O)NC[C@H]1CN(c2ccc(-c3ccc(N4CCOCC4)c(=O)cc3)c(F)c2)C(=O)O1` [Compound 36, (S)-N-[[3-[3-fluoro4[(4-morpholino)-5-oxo-1,3,6cycloheptatrien-1-yl]phenyl]-2-oxo-5oxazolidinyl]methyl]-acetamide] were 2 µg/mL (≈ 4.53 µM) and 0.5 µg/mL (≈ 1.13 µM).
For `COCCOc1ccc(-c2ccc(N3CC(CNC(C)=O)OC3=O)cc2)ccc1=O` (racemic) [Compound 35, (±)-N-[[3-[4-[4-(2-methoxyethoxy)-5-oxo-1,3,6cycloheptatrien1-yl]phenyl)-2-oxo-5-oxazolidinyl]methyl]-acetamide] the same measures were 4 µg/mL (≈ 9.7 µM) and 1 µg/mL (≈ 2.42 µM).
As for `CCOc1ccc(-c2ccc(N3CC(CNC(C)=O)OC3=O)cc2)ccc1=O` (racemic) [Compound 22, (±)-N-[[3-[4-(4-ethoxy-5-oxo-1,3,6-cycloheptatrien-1-yl]phenyl]-2-oxo5-oxazolidinyl]methyl]-acetamide], the MIC amounted to 4 µg/mL (≈ 10.5 µM) in experiment [1] and 0.5 µg/mL (≈ 1.31 µM) in experiment [2].
Regarding `CCN(CC)c1ccc(-c2ccc(N3CC(CNC(C)=O)OC3=O)cc2)ccc1=O` (racemic) [Compound 2, (±)-N[[3-[4-(4-diethylamino-5-oxo-1,3,6-cycloheptatrien-1-yl)phenyl]-2-oxo-5-oxazolidinyl]methyl]-acetamide], the MIC in experiment [1] was found to be 4 µg/mL (≈ 9.77 µM); in experiment [2] it was 1 µg/mL (≈ 2.44 µM).
Taken in the same sequence, the figures for `CC(=O)NCC1CN(c2ccc(-c3cccc(N4CCOCC4)c(=O)c3)cc2)C(=O)O1` (racemic) [Compound 27, (±)-N-[]3-[4-4-(4-morpholinyl)-3-oxo-1,4,6-cycloheptatrien-1-yl]phenyl]-2-oxo-5-oxazolidinyl]methyl]-acetamide] were 4 µg/mL (≈ 9.45 µM) and 1 µg/mL (≈ 2.36 µM).
Taken in the same sequence, the figures for `COc1ccc(-c2ccc(N3CC(CNC(C)=O)OC3=O)cc2)ccc1=O` (racemic) [Compound 1, (±)-N[[3-[4-(4-methoxy-5-oxo-,1,3,6-cycloheptatrien-yl)phenyl]-2-oxazolidinyl]methyl-acetamide] were 2 µg/mL (≈ 5.43 µM) and 0.25 µg/mL (≈ 0.679 µM).
Taken in the same sequence, the figures for `CC(=O)NC[C@H]1CN(c2ccc(-c3ccc(N4CCOCC4)c(=O)cc3)cc2)C(=O)O1` [Compound 25, (S)-N-[[3-[4[4-(4-morpholino)-5-oxo-1,3,6-cycloheptatrien-1-yl]phenyl]-2-oxo-5-oxazolidinyl]methyl]-acetamide] were 2 µg/mL (≈ 4.72 µM) and 0.5 µg/mL (≈ 1.18 µM).
Take `CC(=O)NCC1CN(c2ccc(-c3ccc(N4CCOCC4)c(=O)cc3)cc2)C(=O)O1` (racemic) [Compound 5, (±)-N-[[3-[4-[4-(4-morpholino)-5-oxo1,3,6-cycloheptatrien-1-yl]phenyl]2oxo5-oxazolidinyl]methyl]-acetamide]: the results for the MIC in experiment [1] and in experiment [2] were 2 µg/mL (≈ 4.72 µM) and 0.5 µg/mL (≈ 1.18 µM), respectively.
Turning to `CC(=O)NCC1CN(c2ccc(-c3ccc(N4CCNC(C)C4)c(=O)cc3)cc2)C(=O)O1` (racemic) [Compound 17, (±)-N-[[3-[4-[4-(3-methyl-1-piperazinyl)-5-oxo-1,3,6-cycloheptatrien-1-yl]phenyl]2-oxo-5-oxazolidinyl]methyl]-acetamide], the MIC in experiment [1] was 8 µg/mL (≈ 18.3 µM); in experiment [2], 0.25 µg/mL (≈ 0.573 µM).
For the compound `COc1cc(-c2ccc(N3CC(CNC(C)=O)OC3=O)cc2)cccc1=O` (racemic) [Compound 21, (±)-N-[[3-[4-(6-methoxy-5-oxo-1,3,6-cycloheptatrien-1-yl]phenyl]-2-oxo5-oxazolidinyl]methyl]-acetamide], the MIC was found to be 64 µg/mL (≈ 174 µM) in experiment [1] and 8 µg/mL (≈ 21.7 µM) in experiment [2].

Values taken from US5523403A, “Tropone-substituted phenyloxazolidinone antibacterial agents” (The Upjohn Company, priority 1995, dated 1996).
